In US20240124483A1, “Methods for the Treatment of Fibrotic Disease” (SHY Therapeutics, LLC, priority 2021, published 2024) one finds inhibition and IC50 data, which are given here for ten compounds.

Like-named read-outs stand apart in the source and are kept apart here.

One assay relates to AKT phosphorylation. The assay can be described thus: Western AKT Cell-Based Phosphorylation Assay. The following applies: Homo sapiens, PANC-1, 6 hours, EGF 1.5 ng/ml, read-out: % inh of AKT phosphorylation in PANC-1. The protocol: Human tumor-derived pancreatic cancer cell line Panc-1 was purchased from American Type Culture Collection and grown in complete DMEM-High Glucose supplemented with penicillin (100 U/mL), streptomycin (100 μg/mL), and 10% heat-inactivated FBS at 37° C. in a humidified incubator with 5% CO2.
(§1) Method: Cells were plated at 350000 cells/well density in a 12-well plate, allowed 3 hours to adhere to the plate, then starved in the appropriate medium in the presence of 0.5% FBS overnight. The small molecules to be tested were added to the cells in the final concentration of 10 μM in the presence of 0.3% DMSO for 6 hours incubation at 37° C. Next, cells were stimulated with 1.5 ng/ml EGF for 15 minutes then cells were lysed with lysis buffer containing 1% Triton X-100, EDTA, and Halt™ Protease & Phosphatase Inhibitor Cocktail (Thermo Scientific). Protein concentration was assessed by BCA protein assay (Thermo Scientific). Phosphorylation level of Akt was determined by western blot.
(§2) Western blot protocol: Equal amounts of protein (15-50 μg) were separated by SDS-PAGE and transferred to nitrocellulose membranes (Invitrogen by Thermo Fisher Scientific). The membrane was stained with Ponceau S Stain (Boston BioProducts) to verify uniform protein loading. Membranes were blocked with 10% milk and phosphorylation levels of Akt were assessed by incubating overnight at 4° C. with anti-phospho-Akt (Ser473) antibody (Cell Signaling) followed by HRP-conjugated secondary antibody (Jackson Immunoresearch, West Grove, PA). Bands were incubated in Amersham ECL Prime Western Blotting Detection Reagent (GE Healthcare) and visualized using the ChemiDoc MP imaging system (Bio-Rad).

A further assay concerns MiaPaca2. The assay can be described thus: MiaPaca2 proliferation. The assay is classed as cell-based. Conditions: Homo sapiens, MIA PaCa-2; for inhibition at 10 µM: read-out: % inh of proliferation in MiaPaca2.
Another assay concerns ERK1/2 phosphorylation. The assay can be described thus: Western ERK1/2 Cell-Based Phosphorylation Assay. Conditions: Homo sapiens, PANC-1, 6 hours, EGF 1.5 ng/ml, read-out: % inh of ERK1/2 phosphorylation in PANC-1. The protocol: Cell lines: Human tumor-derived pancreatic cancer cell line Panc-1 was purchased from American Type Culture Collection and grown in complete DMEM-High Glucose, supplemented with penicillin (100 U/mL), streptomycin (100 μg/mL), and 10% heat-inactivated FBS at 37° C. in a humidified incubator with 5% CO2.
as §1, with “C. For IC50 value determination, serial dilutions of compounds were added to cells under the same conditions.” for “C.”, “ERK1/2” for “Akt”
as §2, with “ERK1/2” for “Akt”, “anti-phospho-p44/42 (Thr202/Tyr204)” for “anti-phospho-Akt (Ser473)”

For the next assay, the target named is KRas Q61H mutant (Homo sapiens (Human), UniProt P01116, Q61H). The assay can be described thus: Ras GTP Binding Domain Inhibition Assay, KRas Q61H mutant. Conditions: 20 μM. The procedure: A Ras Superfamily Activity Assay (as disclosed in International Application No. PCT/US2018/038613, filed Jun. 20, 2018, which is incorporated by reference in its entirety) was used as a specific assay to evaluate compounds against the following for the following Ras Superfamily proteins: KRas wild type, KRas Q61H mutant, KRas G12C mutant, KRas G12D mutant, Rac-1, and Rho-A.
KRas Q61H mutant, sequence (P01116 other isoform, or with tags, fused parts or gaps Q61H): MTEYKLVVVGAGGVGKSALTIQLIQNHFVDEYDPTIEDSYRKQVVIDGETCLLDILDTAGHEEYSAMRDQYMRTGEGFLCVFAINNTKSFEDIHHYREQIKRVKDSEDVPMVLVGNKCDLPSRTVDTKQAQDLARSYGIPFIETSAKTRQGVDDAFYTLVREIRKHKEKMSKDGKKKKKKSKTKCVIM
Buffer-I: • 25 mM Tris-HCl, pH 7.4 • 27 mM KCl • 137 mM NaCl • 1 mM MgCl2 • 1 mM DTT
Buffer-II: • 50 mM Tris-HCl, pH 7.0 • 1 mM MgCl2 • 1 mM DTT
The small GTPases proteins: KRas wild type. KRas Q61H mutant, KRas G12C mutant, KRas G12D mutants, Rac-1, and Rho-A were expressed as His-tagged proteins. In addition, the Guanosine nucleotide Exchange Factor (GEF) Sos protein (residues 556-1049) was expressed as a His-tagged protein. In cells, the guanine nucleotide exchange factor Sos protein promotes activation of Ras proteins by stimulating an exchange of GDP for GTP. The inclusion of Sos to the Ras GTP binding domain inhibition assay may be considered as an alternative representation of physiological cellular conditions for evaluating the inhibitory activity of some of the tested small molecules.
For the assay, all purified small GTPases proteins were diluted in Buffer-I or Buffer-II to a final concentration of 10-30 μg/mL. 200 μL of each diluted protein was added to a nickel-coated 96-well plate and incubated overnight at 4° C. Then the protein solution was discarded and 200 μL of Buffer-I or Buffer-II was added to each well in the presence of 1% DMSO. Compounds to be tested were added to the protein-coated wells at final concentration of 20 μM, and incubated for 3 hours at room temperature with and without 10-30 μg/mL of Sos added to the final hour of the incubation. When performing IC50 measurements a serial dilution of all tested concentrations was added. Then Cy3-GTP or Cy5-GTP was added to each well to a final concentration of 100 nM. The labeled GTP was incubated for 45 minutes at room temperature. Following GTP incubation, wells were washed 3× in Buffer-I or Buffer-II and 200 μL of Buffer-I or Buffer-II was added to each well. Following washes, the amount of bound labeled-GTP was measured using a SpectraMax M3 (Molecular Devices).

Setting [1] is: + SOS, read-out: KRas Q61H mutant + SOS: % inh.
The mark [2] stands for this setting: without SOS, read-out: KRas Q61H mutant: % inh.

`COCCCCOc1nc(-c2nccn2C)nc2sc(-c3ccn(C(C)C)n3)c(C)c12` [Compound 34, 6-(1-Isopropyl-1H-pyrazol-3-yl)-4-(4-methoxybutoxy)-5-methyl-2-(1-methyl-1H-imidazol-2-yl)thieno[2,3-d]pyrimidine]: the inhibition at 10 µM was 0% in the assay with AKT phosphorylation, 26 to 45% in the assay on MiaPaca2 and 0% in the assay on ERK1/2 phosphorylation. In addition, in the assay on MiaPaca2, the IC50 (commonly the concentration that gives 50% inhibition) is more than 10 µM. Also, the inhibition at 20 µM at KRas Q61H mutant (setting [1]) was 1 to 25%; on KRas Q61H mutant (setting [2]), 0%.
`COCC1CN(c2nc(-c3nccn3C)nc3sc(-c4ccn(C(C)C)n4)c(C)c23)CCO1` (racemic) [Compound 15, 4-(6-(1-Isopropyl-1H-pyrazol-3-yl)-5-methyl-2-(1-methyl-1H-imidazol-2-yl)thieno[2,3-d]pyrimidin-4-yl)-2-(methoxymethyl)morpholine]: the inhibition at 10 µM in the assay on AKT phosphorylation is 76 to 100%; in the assay with MiaPaca2, 46 to 75%; in the assay with ERK1/2 phosphorylation, 46 to 75%. Besides, in the assay with MiaPaca2, the IC50 was in the range of 5 to 10 µM. Moreover, the inhibition at 20 µM on KRas Q61H mutant (setting [1]) and at KRas Q61H mutant (setting [2]) was 76 to 100% throughout.
In the case of `CO[C@H]1CNC[C@@H](Nc2nc(-c3nccn3C)nc3sc(-c4ccn(C(C)C)n4)cc23)C1` [Compound 28, 6-(1-Isopropyl-1H-pyrazol-3-yl)-N-((3S,5R)-5-methoxypiperidin-3-yl)-2-(1-methyl-1H-imidazol-2-yl)thieno[2,3-d]pyrimidin-4-amine], the inhibition at 10 µM is 26 to 45% in the assay on AKT phosphorylation, 76 to 100% with MiaPaca2 and 46 to 75% with ERK1/2 phosphorylation. For the same compound, the IC50 in the assay with MiaPaca2 is 5 to 10 µM. In addition, the inhibition at 20 µM was in the range of 76 to 100% on KRas Q61H mutant (setting [1]) and 46 to 75% on KRas Q61H mutant (setting [2]).
Turning to `COc1cc(-c2sc3nc(-c4nccn4C)nc(N[C@@H]4CC[C@H](OC)C4)c3c2-c2ccccc2)ccn1` (racemic) [Compound 44, rac-N-((1R,3S)-3-Methoxycyclopentyl)-6-(2-methoxypyridin-4-yl)-2-(1-methyl-1H-imidazol-2-yl)-5-phenylthieno[2,3-d]pyrimidin-4-amine], the results for the inhibition at 10 µM in the assay on AKT phosphorylation, with MiaPaca2 and in the assay on ERK1/2 phosphorylation were 76 to 100%, 76 to 100% and 46 to 75%, respectively. This compound registered an IC50 with MiaPaca2 of 5 to 10 µM. Besides, the inhibition at 20 µM was 76 to 100% on KRas Q61H mutant (setting [1]) and 26 to 45% on KRas Q61H mutant (setting [2]).
For the compound `COCCCn1c(-c2nccn2C)nc2sc(-c3ccn(C(C)C)n3)c(-c3ccccc3)c2c1=O` [Compound 36, 6-(1-Isopropyl-1H-pyrazol-3-yl)-3-(3-methoxypropyl)-2-(1-methyl-1H-imidazol-2-yl)-5-phenylthieno[2,3-d]pyrimidin-4(3H)-one], the inhibition at 10 µM in the assay with AKT phosphorylation is 0%; in the assay with MiaPaca2 it was 76 to 100%; in the assay with ERK1/2 phosphorylation, 0%. The compound also gave an IC50 with MiaPaca2 of 5 to 10 µM. In addition, the inhibition at 20 µM on KRas Q61H mutant (setting [1]) and at KRas Q61H mutant (setting [2]) was 0% throughout.
With `COc1cccc(-c2sc3nc(-c4nccn4C)nc(N[C@H]4C[C@H](OC)C4)c3c2-c2ccccc2)c1F` [Compound 40, 6-(2-Fluoro-3-methoxyphenyl)-N-((1r,3r)-3-methoxycyclobutyl)-2-(1-methyl-1H-imidazol-2-yl)-5-phenylthieno[2,3-d]pyrimidin-4-amine], the inhibition at 10 µM with AKT phosphorylation, in the assay with MiaPaca2 and in the assay with ERK1/2 phosphorylation was 76 to 100% each time. In the assay on MiaPaca2, this compound came in with an IC50 of 1 to 4.99 µM. For the same compound, the inhibition at 20 µM on KRas Q61H mutant (setting [1]) and on KRas Q61H mutant (setting [2]) was 76 to 100% each time.
Take `Cc1c(-c2ccn(C(C)C)n2)sc2nc(-c3nccn3C)nc(NCC3COCCN3C)c12` (racemic) [Compound 24, rac-6-(1-Isopropyl-1H-pyrazol-3-yl)-5-methyl-2-(1-methyl-1H-imidazol-2-yl)-N-((4-methylmorpholin-3-yl)methyl)thieno[2,3-d]pyrimidin-4-amine]: the inhibition at 10 µM with AKT phosphorylation was 0%; with MiaPaca2, 76 to 100%; with ERK1/2 phosphorylation, 0%. The IC50 with MiaPaca2 was in the range of 5 to 10 µM. Also, the inhibition at 20 µM on KRas Q61H mutant (setting [1]) was 76 to 100%; on KRas Q61H mutant (setting [2]), 46 to 75%.
As to `Cc1c(-c2ccn(C(C)C)n2)sc2nc(-c3nccn3C)nc(NCCN3CCOCC3)c12` [Compound 22, 6-(1-Isopropyl-1H-pyrazol-3-yl)-5-methyl-2-(1-methyl-1H-imidazol-2-yl)-N-(2-morpholinoethyl)thieno[2,3-d]pyrimidin-4-amine], the results for the inhibition at 10 µM in the assay with AKT phosphorylation, in the assay with MiaPaca2 and with ERK1/2 phosphorylation were 1 to 25%, 76 to 100% and 0%, respectively. The compound also gave a half-inhibitory concentration (IC50) with MiaPaca2 of 5 to 10 µM. Besides, the inhibition at 20 µM on KRas Q61H mutant (setting [1]) and at KRas Q61H mutant (setting [2]) was 76 to 100% in each case.
For `COc1cccc(Nc2nc(-c3nccn3C)nc3sc(-c4ccn(C(C)C)n4)c(C)c23)c1` [Compound 17, 6-(1-Isopropyl-1H-pyrazol-3-yl)-N-(3-methoxyphenyl)-5-methyl-2-(1-methyl-1H-imidazol-2-yl)thieno[2,3-d]pyrimidin-4-amine], the results for the inhibition at 10 µM in the assay on AKT phosphorylation, with MiaPaca2 and with ERK1/2 phosphorylation were 46 to 75%, 76 to 100% and 76 to 100%, respectively. Besides, the IC50 with MiaPaca2 lay in the range of 5 to 10 µM. Moreover, the values for the inhibition at 20 µM at KRas Q61H mutant (setting [1]) and on KRas Q61H mutant (setting [2]) were 46 to 75% and 26 to 45%, respectively.
For the compound `COCCO[C@H]1CC[C@@H](Nc2nc(-c3nccn3C)nc3sc(-c4ccn(C(C)C)n4)c(C)c23)C1` (racemic) [Compound 20, rac-6-(1-Isopropyl-1H-pyrazol-3-yl)-N-((1R,3S)-3-(2-methoxyethoxy)cyclopentyl)-5-methyl-2-(1-methyl-1H-imidazol-2-yl)thieno[2,3-d]pyrimidin-4-amine], the inhibition at 10 µM in the assay on AKT phosphorylation lay in the range of 26 to 45%; with MiaPaca2 it was 76 to 100%; with ERK1/2 phosphorylation, 46 to 75%. In the assay with MiaPaca2, this compound registered an IC50 of 1 to 4.99 µM. In addition, the inhibition at 20 µM lay in the range of 76 to 100% at KRas Q61H mutant (setting [1]) and 46 to 75% on KRas Q61H mutant (setting [2]).
